Measured values taken from publication PMC3510433, “Adamantyl carboxamides and acetamides as potent human 11β-hydroxysteroid dehydrogenase type 1 inhibitors” (Bioorganic & Medicinal Chemistry, 2012).
Marks after values point to notes of the source that are not given here.

Assays:
human 11β-HSD1 = target: T1, human 11β-HSD1 (Homo sapiens, UniProt P28845); test: 11β-HSD1 inhibition, human HEK-293 cell based assay (SPA); settings: for inhibition at 1 µM: HEK293, read-out: Percentage of inhibition measured at 1 μM; for 11β-HSD1 inhibitory activity (in words): at 1 μM where stated
T1 construct: expressed in transfected cells; host or cells: HEK-293 (human), stably transfected
Method: 11β-HSD1 inhibition was measured in intact human HEK-293 cells to reveal the true inhibitory activity. Differences in observed effects for different compounds may reflect combinatorial factors including the ability to penetrate the cell membrane, the stability within the cell and the binding ability to the enzyme.
The cell-based assays were conducted on the human HEK-293 cell line stably transfected with the HSD11B1 gene.[28] 11β-HSD1 activity was determined by measuring the amount of tritiated product formed using a scintillation proximity assay (SPA).
Cells were incubated in 96-well micro-plates in the presence of tritiated cortisone substrate and the assay plates contained internal high and low controls to allow calculation of percentage inhibition. Each well of a 96-well culture plate was seeded with human 11β-HSD1 overexpressed HEK293 cells in 100 μL medium. When the cells were 80% confluent, the medium was removed from each well then 100 μL of fresh, serum-free, medium containing ^3H-cortisone (22 nM) and test compound in 1% DMSO was added. The control wells were also dispensed. […] The plate was incubated at 37 °C for 2 h, after which 50 μL of medium was removed from each well and transferred to a microplate containing 100 μL of a pre-incubated mixture of anti-cortisol antibody and SPA bead. The mixture was incubated with gentle shaking until equilibrium was reached, before transferring to a scintillation counter to establish the enzyme activity in each sample.
The compounds were initially tested at a concentration of 1 μM. Those compounds showing over 70% inhibition of 11β-HSD1 at 1 μM were subjected to an IC50 measurement. A Merck compound 544 was used as the reference compound in the assay (IC50 = 50 ± 20 nM).[19] The IC50 values are reported as the mean value of 3 measurements with variance less than 20%. IC50 values were calculated from the dose-response curve using Microsoft Excel add-in XLfit with a Four Parameter Logistic nonlinear regression model.

[1] = 1 μM, HEK-293 cells transfected with HSD11B1
[2] = HEK-293 cells stably transfected with HSD11B1, mean of 3 measurements

T1 sequence (P28845 whole entry): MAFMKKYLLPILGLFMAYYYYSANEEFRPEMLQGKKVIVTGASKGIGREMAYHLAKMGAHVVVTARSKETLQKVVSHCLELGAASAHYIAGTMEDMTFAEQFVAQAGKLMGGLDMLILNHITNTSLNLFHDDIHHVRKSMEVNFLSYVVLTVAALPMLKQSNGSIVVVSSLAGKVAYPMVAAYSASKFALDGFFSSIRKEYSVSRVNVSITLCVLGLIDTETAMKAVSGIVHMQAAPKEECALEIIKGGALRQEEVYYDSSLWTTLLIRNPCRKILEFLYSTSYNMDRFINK

Row | SMILES | inhibition at 1 µM (human 11β-HSD1; [1]) [%] | melting point [°C] | IC50 (human 11β-HSD1; [2]) [µM] | further results
1 | Cc1cccc(CN(C)C(=O)C23CC4CC(CC(C4)C2)C3)n1 [Compound 27, N-Methyl-N-((6-methylpyridin-2-yl)-methyl)adamantane-1-carboxamide] | 48 | 76 to 77.5 |  | 
2 | CN(Cc1cccs1)C(=O)C1(C)CCCCC1 [Compound 40, N,1-Dimethyl-N-(thiophen-2-ylmethyl)cyclohexanecarboxamide] |  |  | 3.6 | 
3 | CN(Cc1cccn1C)C(=O)CC12CC3CC(CC(C3)C1)C2 [Compound 35, 2-(Adamantan-1-yl)-N-methyl-N-[(1-methyl-1H-pyrrol-2-yl)methyl]acetamide] |  | 75 to 76.5 | 0.655 | fold loss of inhibitory activity compared with 15 (human 11β-HSD1; acetamide vs carboxamide 15): ~6 fold
4 | O=C(NCCc1ccccn1)C12CC3CC(CC(C3)C1)C2 [Compound 31, N-(2-(Pyridin-2-yl)ethyl)adamant-ane-1-carboxamide] |  | 76 to 79 | 0.379 | 
5 | Cc1csc(CN(C)C(=O)C23CC4CC(CC(C4)C2)C3)c1 [Compound 8, N-Methyl-N-((4-methylthiophen-2-yl)-methyl)adamantane-1-carboxamide] | 55 | 87 to 88 |  | 11β-HSD1 inhibitory activity (in words) (human 11β-HSD1): weak inhibition
6 | CN(Cc1cccs1)C(=O)C1(c2ccc(Cl)cc2)CC1 [Compound 42, 1-(4-Chlorophenyl)-N-methyl-N-(thio-phen-2-ylmethyl) cyclopropanecarbox-amide] |  |  | 1.55 | IC50 (human 11β-HSD1; HEK-293 cells): ~1.6 µM; fold loss of activity in comparison with 41 (human 11β-HSD1; vs compound 41): ~5.5 fold
7 | O=C(CC12CC3CC(CC(C3)C1)C2)NCc1ccccn1 [Compound 38, 2-(Adamantan-1-yl)-N-(pyridin-2-yl-methyl)acetamide] |  |  |  | Percentage of inhibition measured at 1 μM (human 11β-HSD1; [1]): 26% ^a
8 | CN(Cc1ccsc1)C(=O)CC12CC3CC(CC(C3)C1)C2 [Compound 34, 2-(Adamantan-1-yl)-N-methyl-N-(thio-phen-3-ylmethyl)acetamide] |  | 117 to 119 | 0.349 | fold reduction in potency compared to 12 (human 11β-HSD1; acetamide vs carboxamide 12): greater than 2 fold
9 | O=C(CC12CC3CC(CC(C3)C1)C2)NCc1cccs1 [Compound 33, 2-(Adamantan-1-yl)-N-(thiophen-2-ylmeth-yl)acetamide] | 66 | 117 to 119 |  | 
10 | CN(Cc1ccco1)C(=O)C12CC3CC(CC(C3)C1)C2 [Compound 13] |  |  | 0.249 | 
11 | Cn1cccc1CNC(=O)C12CC3CC(CC(C3)C1)C2 [Compound 16, N-((1-Methyl-1H-pyrrol-2-yl)meth-yl)-adamantane-1-carboxamide] |  | 117 to 119 | 1.7 | 
12 | CN(Cc1cccnc1)C(=O)C12CC3CC(CC(C3)C1)C2 [Compound 24, N-Methyl-N-(pyridin-3-ylmethyl)-adamantane-1-carboxamide] | 57 | 57 to 59.5 |  | 
13 | O=C(NCc1cccs1)C12CC3CC(CC(C3)C1)C2 [Compound 5] |  |  | 0.403 | 
14 | CN(Cc1cccs1)C(=O)C1(c2ccc(Cl)cc2)CCCC1 [Compound 44, 1-(4-Chlorophenyl)-N-methyl-N-(thio-phen-2-ylmethyl)cyclopentanecarbox-amide] |  | 58 to 60 | 2.2 | 
15 | O=C(NCCc1cccs1)C12CC3CC(CC(C3)C1)C2 [Compound 29] |  |  | 0.679 | 
16 | CN(Cc1cccc(N)c1)C(=O)C12CC3CC(CC(C3)C1)C2 [Compound 20, N-(3-Aminobenzyl)-N-methyladam-antane-1-carboxamide] |  | 105 to 106.5 | 0.118 | 
17 | CN(Cc1cccnc1)C(=O)CC12CC3CC(CC(C3)C1)C2 [Compound 37, 2-(Adamantan-1-yl)-N-methyl-N-(pyridin-3-ylmethyl)acetamide] | 67 | 67 to 68.5 |  | 

Row | SMILES | inhibition at 1 µM (human 11β-HSD1; [1]) [%] | melting point [°C] | IC50 (human 11β-HSD1; [2]) [µM] | further results
18 | O=C(NCc1ccccn1)C12CC3CC(CC(C3)C1)C2 [Compound 26, N-(Pyridin-2-ylmethyl)adamantane-1-carboxamide] | 45 | 91 to 93.5 |  | 
19 | CN(Cc1sccc1N)C(=O)C12CC3CC(CC(C3)C1)C2 [Compound 7, N-((3-Aminothiophen-2-yl)methyl)-N-methyladamantane-1-carboxamide] | 12 | 117 to 119 |  | 11β-HSD1 inhibitory activity (in words) (human 11β-HSD1): sharp decrease of activity
20 | CN(Cc1ccc(Cl)s1)C(=O)C12CC3CC(CC(C3)C1)C2 [Compound 11, N-((5-Chlorothiophen-2-yl)methyl)-N-methyladamantane-1-carboxamide] | 29 | 92 to 94 |  | 11β-HSD1 inhibitory activity (in words) (human 11β-HSD1): weak inhibition
21 | C1CCc2nnc(C34CC5CC(CC(C5)C3)C4)n2CC1 [Merck compound 544, reference compound] |  |  | 0.05 ± 0.02 | 
22 | Cc1csc(CN(C)C(=O)C23CC4CC(CC(C4)C2)C3)n1 [Compound 19, N-Methyl-N-((4-methylthiazol-2-yl)-methyl)adamantane-1-carboxamide] | 31 |  |  | 
23 | O=C(NCc1cccnc1)C12CC3CC(CC(C3)C1)C2 [Compound 25, N-(Pyridin-3-ylmethyl)adamantane-1-carboxamide] |  |  | 0.676 | 
24 | Cc1ccc(CN(C)C(=O)C23CC4CC(CC(C4)C2)C3)s1 [Compound 10, N-Methyl-N-((5-methylthiophen-2-yl)-methyl)adamantane-1-carboxamide] | 32 | 83 to 85.5 |  | 11β-HSD1 inhibitory activity (in words) (human 11β-HSD1): weak inhibition
25 | Cn1cccc1CNC(=O)CC12CC3CC(CC(C3)C1)C2 [Compound 36, 2-(Adamantan-1-yl)-N-[(1-methyl-1H-pyrrol-2-yl)methyl]acetamide] |  | 92 to 95 | 2.88 | 
26 | Cc1csc(CNC(=O)C23CC4CC(CC(C4)C2)C3)c1 [Compound 9, N-((4-Methylthiophen-2-yl)methyl)-adamantane-1-carboxamide] | 8 | 127 to 128.5 |  | 
27 | CN(Cc1ccnn1C)C(=O)C12CC3CC(CC(C3)C1)C2 [Compound 18, N-Methyl-N-((1-methyl-1H-pyrazol-5-yl)-methyl)adamantane-1-carboxamide] | 34 | 102 to 103.5 |  | 
28 | O=C(NCc1ccco1)C12CC3CC(CC(C3)C1)C2 [Compound 14, N-(Furan-2-ylmethyl)adamantane-1-carboxamide] | 68 | 69 to 72 |  | 
29 | CN(Cc1cccs1)C(=O)C12CC3CC(CC1C3)C2 [Compound 39, N-Methyl-N-(thiophen-2-ylmethyl)-tRicyclo[3.3.1.0^(3,7)]nonane-3-carboxamide] |  | 87 to 88.5 | 1.08 | 
30 | CN(Cc1cccs1)C(=O)C1(c2ccc(Cl)cc2)CCC1 [Compound 43, 1-(4-Chlorophenyl)-N-methyl-N-(thio-phen-2-ylmethyl)cyclobutanecarbox-amide] |  |  | 0.385 | 
31 | Cc1ccsc1CN(C)C(=O)C12CC3CC(CC(C3)C1)C2 [Compound 6, N-Methyl-N-((3-methylthiophen-2-yl)methyl)adamantane-1-carboxamide] |  | 72 to 73.5 | 0.275 | 11β-HSD1 inhibitory activity (in words) (human 11β-HSD1): retains nearly the same activity as parent compound 3
32 | CN(Cc1ccsc1)C(=O)C12CC3CC(CC(C3)C1)C2 [Compound 12] |  |  | 0.125 | 
33 | CN(CCc1cccs1)C(=O)C12CC3CC(CC(C3)C1)C2 [Compound 28] |  |  | 0.448 | 
